This note sets out measurements from publication PMC6560211, “ApoAI-derived peptide increases glucose tolerance and prevents formation of atherosclerosis in mice” (Diabetologia, 2019).

No end group written: not given here.

Series [1] in a line: Peptide stability in physiologic buffer or blood plasma. The series is classed as in vitro ADME. The following applies: after denaturation/refolding; phosphate buffer, human plasma (citrate, pooled from four donors) or mouse CD-1 plasma (heparin); over 2 h; LC-MS/MS. On the procedure:
Peptide (lyophilised powder) produced by Red Glead (Lund, Sweden) was reconstituted in Milli-Q water and then either used directly or mixed in a 1:1 ratio with 6 mol/l guanidine HCl in 2× PBS to give a monodisperse solution, followed by desalting using a column equilibrated with PBS, pH 7.4, using ÄKTAxpress fast protein LC (GE Healthcare, Uppsala, Sweden). Peptide integrity was analysed using circular dichroism spectroscopy. Peptide solubility was assayed at Red Glead using HPLC. Peptide stability in physiologic buffer or blood plasma (human or mouse) over 2 h was assayed at the Science for Life Laboratory (Uppsala, Sweden). […]
(§1) Peptide concentration was determined at 205 nm using a NanoDrop 2000c spectrophotometer (Thermo Scientific) and integrity was analysed by Tris-Tricine SDS-PAGE followed by coomassie staining or by circular dichroism spectroscopy (CD). […]
(§2) The primary goal of this study was to investigate the anti -diabetic and anti-atherosclerotic efficacy of a novel ApoA -I derived peptide. Using a range of in vitro models, we assessed the effects of the peptide on HDL formation, cholesterol efflux, insulin secretion, and non -insulin dependent glucose uptake. […] Peptide effects were measured relative to full length ApoA -I and vehicle controls. […]
Supernatants were recovered and insulin secretion was analysed by ELISA (Mercodia). […]

Series [2] has as its system INS-1E cells. Nature of the series: Glucose-stimulated insulin secretion assay. The series is classed as cell-based, rat. The settings on record: 2 h preincubation with RG54 at 3.3 mmol/l glucose, then 1 h at 20 mmol/l glucose without peptide; ELISA; three independent experiments. On the procedure:
INS-1E cells were preincubated for 2 h with HEPES KRB supplemented with 3.3 mmol/l glucose and RG54, then stimulated for 1 h with HEPES KRB supplemented with either 3.3 or 20 mmol/l glucose but no RG54 peptide, and insulin secretion was analysed using ELISA (Mercodia, Uppsala, Sweden). See ESM Methods for more details.
Fig. 3 RG54 induces skeletal muscle glucose uptake and primes INS-1E cells to increase GSIS. (a) C2C12 skeletal muscle myotubes were incubated in the absence or presence of different concentrations of RG54 or with insulin, followed by glucose uptake measurements. Values are means ± SEM from three independent experiments. *p≤0.05, **p≤0.01, ***p≤0.001 vs control. […] Insulin secretion was measured after 1 h glucose challenge. […]
as §1, §2
On the technique in general: ELISA stands for enzyme-linked immunosorbent assay.

Take “Ac-AEYHAKATEHLSTLSEKAKPALEDLRQGLLPVLESFKVSFLSALEEYTKKLNTQ [RG54]”: the “peptide integrity by peptide stability assays (buffer or plasma)” value in series [1] is recorded as “confirmed”. Besides, in series [2], the “GSIS compared with control cells” value is on record as “up to a twofold increase”.
